Drawing on patent publication US20250206722A1, “SMALL MOLECULE INHIBITORS OF TEA DOMAIN FAMILY MEMBERS” (The Scripps Research Institute, priority 2022, published 2025), this text covers IC50 for 26 compounds.

Structures are written as SMILES.

What all share (type): cell-based
In one experiment the test system is NCI-H226 cells. The experiment in a line: NCI-H226 proliferation assay (in house). The note with it: Homo sapiens, 120 h, 5 days, Cell TiterGlo, 20-point 1:2 dilution from 20 μM. The method in brief: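 Cells in RPMI 1640 + 10% FBS, 500 per well, dosed after 24 h with 20-point 1:2 dilutions from 20 μM (final), in triplicate. After 5 days at 37 °C, 5% CO2, viability read by CellTiter-Glo luminescence.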
Background: Cellular ATP, detected with luciferase, serves as a proxy for viable cell number.

Experiment [1] has as its system transcriptional activity of TEADs. Nature of the experiment: TEAD reporter assay (MCF7 TEAD-LUC reporter cells). The note with it: Homo sapiens, 24 hours, BrightGlo luminescence. In short, it runs like this: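 MCF7 TEAD-LUC reporter cells were plated at 5,000/well and after 24 h treated with a 20-point 1:2 series from 20 μM final, in triplicate. Luciferase was read by BrightGlo luminescence after 24 h exposure at 37 °C.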
A general note: In a reporter assay the amount or activity of a reporter protein is the signal.

For the next experiment, the system named is IMR32 cells. The experiment in a line: IMR32 cytotoxicity assay. Particulars: Homo sapiens, IMR-32, 72 h, 3 days, Cell TiterGlo. How it is done:
IMR32 cells were obtained from American Type Culture Collection (ATCC, CCL-127) and cultured in DMEM (Corning, 10-013-CV) supplemented with 10% fetal bovine serum (Gibco, 10438-026) and 1% penicillin-streptomycin (Gibco, 15070063). Cells were trypsinized, resuspended in growth medium, and diluted to a concentrated of 20,000 cells/mL. 1,000 cells, 50 μL of cell suspension, per well were then plated in a white 384-well plate (Corning) and incubated at 37° C., 5% CO2. After 24 hours incubation, 100 nL of test compounds in DMSO, 20-point 1:2 dilution starting from 20 μM (final concentration) in triplicate, were transferred to each well using an Agilent Bravo instrument outfitted with a pintool head. Cells were incubated at 37° C., 5% CO2 for 3 days followed by the addition of 30 μL of Cell TiterGlo (Promega; diluted 1:6 in water) to each well and luminescence values recorded using an EnVision plate reader. […]

In the case of `C=CC(=O)N1CCN(c2nccnc2Nc2ccc(C(F)(F)F)cc2)C[C@@H]1CO` [Example 15, (R)-1-(2-(hydroxymethyl)-4-(3-((4-(trifluoromethyl)phenyl)amino)pyrazin-2-yl)piperazin-1-yl)prop-2-en-1-one], the results for the IC50 (in the experiment on NCI-H226 cells; in experiment [1]; in the experiment on IMR32 cells) were > 20 µM, 5000 nM and 10 µM, respectively.
The corresponding values for `C=CC(=O)N1CCN(c2nccnc2Nc2ccc(C(F)(F)F)cc2)C[C@H]1CO` [Example 16, (S)-1-(2-(hydroxymethyl)-4-(3-((4-(trifluoromethyl)phenyl)amino)pyrazin-2-yl)piperazin-1-yl)prop-2-en-1-one] are > 20 µM, 2500 nM and 5 µM.
The corresponding values for `C=CC(=O)N1CCN(c2nccnc2Nc2ccc(C(F)(F)F)cc2)C[C@H]1CC#N` [Example 21, (R)-2-(1-acryloyl-4-(3-((4-(trifluoromethyl)phenyl)amino)pyrazin-2-yl)piperazin-2-yl)acetonitrile] are 0.32 µM, 43 nM and > 10 µM.
With `C=CC(=O)N1CCN(c2nccnc2Nc2ccc(C(F)(F)F)cc2)C[C@@H]1CC#N` [Example 22, (S)-2-(1-acryloyl-4-(3-((4-(trifluoromethyl)phenyl)amino)pyrazin-2-yl)piperazin-2-yl)acetonitrile], the IC50 (in general, the concentration that gives 50% inhibition) came to 0.27 µM with NCI-H226 cells, 25.9 nM in experiment [1] and 15 µM with IMR32 cells.
Taken in the same sequence, the figures for `C=CC(=O)N1CCN(c2nccnc2Nc2ccc(C(F)(F)F)cc2)C(C)C1` (stereo not drawn) [Example 24, 1-(3-methyl-4-(3-((4-(trifluoromethyl)phenyl)amino)pyrazin-2-yl)piperazin-1-yl)prop-2-en-1-one] were 0.0199 µM, 41 nM and 2.5 µM.
The corresponding values for `C=CC(=O)N1CC=C(c2nccnc2Nc2ccc(C(F)(F)F)cc2)CC1` [Example 25, 1-[4-(3-{[4-(trifluoromethyl)phenyl]amino}pyrazin-2-yl)-3,6-dihydro-2H-pyridin-1-yl]prop-2-en-1-one] are 0.006 µM, 2.1 nM and 15.5 µM.
`C=CC(=O)N1CCCN(c2nccnc2Nc2ccc(C(F)(F)F)cc2)CC1` [Example 27, 1-(4-(3-((4-(trifluoromethyl)phenyl)amino)pyrazin-2-yl)-1,4-diazepan-1-yl)prop-2-en-1-one]: the IC50 in the experiment on NCI-H226 cells was 0.164 µM; in experiment [1] it was 29.7 nM; in the experiment with IMR32 cells, 10 µM.
In the case of `C=CC(=O)N1CCN(c2nccnc2-c2ccc(C(F)(F)F)cc2)CC1` [Example 28, 1-(4-(3-(4-(trifluoromethyl)phenyl)pyrazin-2-yl)piperazin-1-yl)prop-2-en-1-one], the IC50 in the experiment on NCI-H226 cells was 0.0904 µM; in experiment [1], 11.4 nM; in the experiment with IMR32 cells, > 10 µM.
Take `C=CC(=O)N1CCN(c2nccnc2-c2cccc(C(F)(F)F)c2)CC1` [Example 29, 1-(4-(3-(3-(trifluoromethyl)phenyl)pyrazin-2-yl)piperazin-1-yl)prop-2-en-1-one]: the IC50 was > 20 µM in the experiment with NCI-H226 cells, > 20000 nM in experiment [1] and > 20 µM with IMR32 cells.
Consider `C=CC(=O)N1CCN(c2nccnc2Nc2cccc(C(F)(F)F)c2)CC1` [Example 30, 1-(4-(3-((3-(trifluoromethyl)phenyl)amino)pyrazin-2-yl)piperazin-1-yl)prop-2-en-1-one], for which the half-maximal inhibitory concentration (IC50) is > 1 µM in the experiment with NCI-H226 cells, 19.9 nM in experiment [1] and > 10 µM in the experiment with IMR32 cells.
With `C=CC(=O)N1CCN(c2nccnc2Nc2ccc(Cl)cc2)CC1` [Example 32, 1-(4-(3-((4-chlorophenyl)amino)pyrazin-2-yl)piperazin-1-yl)prop-2-en-1-one], the IC50 is 0.059 µM with NCI-H226 cells, 4.67 nM in experiment [1] and 20 µM in the experiment on IMR32 cells.
For the compound `C=CC(=O)N1CCN(c2nccnc2Nc2ccc(F)cc2)CC1` [Example 33, 1-(4-(3-((4-fluorophenyl)amino)pyrazin-2-yl)piperazin-1-yl)prop-2-en-1-one], the IC50 in the experiment on NCI-H226 cells is 0.101 µM; in experiment [1], 10.2 nM; with IMR32 cells it was > 20 µM.
Regarding `C=CC(=O)N1CCN(c2nccnc2Nc2ncc(C(F)(F)F)cn2)CC1` [Example 41, 1-(4-(3-((5-(trifluoromethyl)pyrimidin-2-yl)amino)pyrazin-2-yl)piperazin-1-yl)prop-2-en-1-one], the IC50 with NCI-H226 cells is 0.198 µM; in experiment [1], 23 nM; in the experiment with IMR32 cells, > 20 µM.
Taken in the same sequence, the figures for `C=CC(=O)N1CCN(c2nccnc2Nc2cnc(C(F)(F)F)nc2)CC1` [Example 52, 1-(4-(3-((2-(trifluoromethyl)pyrimidin-5-yl)amino)pyrazin-2-yl)piperazin-1-yl)prop-2-en-1-one] were 0.128 µM, 10.5 nM and > 20 µM.
The corresponding values for `C=CC(=O)N1CCN(c2nccnc2NC2CCC(F)(F)CC2)CC1` [Example 66, 1-(4-(3-((4,4-difluorocyclohexyl)amino)pyrazin-2-yl)piperazin-1-yl)prop-2-en-1-one] are 0.347 µM, 19.2 nM and > 20 µM.
In the case of `C=CC(=O)N1CCN(c2nccnc2Oc2ccc(C(F)(F)F)cc2)CC1` [Example 69, 1-(4-(3-(4-(trifluoromethyl)phenoxy)pyrazin-2-yl)piperazin-1-yl)prop-2-en-1-one], the IC50 was 0.0115 µM in the experiment on NCI-H226 cells, 0.9 nM in experiment [1] and > 20 µM in the experiment on IMR32 cells.
Taken in the same sequence, the figures for `C=CC(=O)N1CCN(c2nccnc2OC2CCC(F)(F)CC2)CC1` [Example 93, 1-(4-{3-[(4,4-difluorocyclohexyl)oxy]pyrazin-2-yl}piperazin-1-yl) prop-2-en-1-one] were 0.078 µM, 7 nM and > 20 µM.
The corresponding values for `C=CC(=O)N1CCN(c2nccnc2N2CC(c3ccccc3)C2)CC1` [Example 106, 1-(4-(3-(3-phenylazetidin-1-yl)pyrazin-2-yl)piperazin-1-yl)prop-2-en-1-one] are 20 µM, 7 nM and > 20 µM.
Take `C=CC(=O)N1CCN(c2ccnc(Nc3ccc(C(F)(F)F)cc3)n2)CC1` [Example 123, 1-[4-(2-{[4-(trifluoromethyl)phenyl]amino}pyrimidin-4-yl)piperazin-1-yl]prop-2-en-1-one]: the IC50 in the experiment with NCI-H226 cells came out at 0.91 µM; in experiment [1], 279 nM; in the experiment on IMR32 cells it was 4.87 µM.
Taken in the same sequence, the figures for `C=CC(=O)N1CCC(N(C)c2ccnc(Nc3ccc(C(F)(F)F)cc3)n2)CC1` [Example 124, 1-(4-(methyl(2-((4-(trifluoromethyl)phenyl)amino)pyrimidin-4-yl)amino)piperidin-1-yl)prop-2-en-1-one] were 4.64 µM, 331 nM and 4.2 µM.
As to `C=CC(=O)N1CCN(c2nccc(Nc3ccc(C(F)(F)F)cc3)n2)CC1` [Example 125, 1-[4-(4-{[4-(trifluoromethyl)phenyl]amino}pyrimidin-2-yl)piperazin-1-yl]prop-2-en-1-one], the IC50 in the experiment on NCI-H226 cells is 2.52 µM; in experiment [1], 258 nM; in the experiment on IMR32 cells, 7.06 µM.
As for `C=CC(=O)N1CCN(c2ncccc2Nc2ccc(C(F)(F)F)cc2)CC1` [Example 134, 1-[4-(3-{[4-(trifluoromethyl)phenyl]amino}pyridin-2-yl)piperazin-1-yl]prop-2-en-1-one], the half-inhibitory concentration (IC50) in the experiment on NCI-H226 cells is 0.023 µM; in experiment [1] it was 2.24 nM; in the experiment on IMR32 cells, > 10 µM.
Taken in the same sequence, the figures for `C=CC(=O)N1CCN(c2cccnc2Nc2ccc(C(F)(F)F)cc2)CC1` [Example 143, 1-[4-(2-{[4-(trifluoromethyl)phenyl]amino}pyridin-3-yl)piperazin-1-yl]prop-2-en-1-one] were 0.017 µM, 5 nM and 20 µM.
On to `CN(C)C/C=C/C(=O)N1CCN(c2nccnc2Nc2ccc(C(F)(F)F)cc2)CC1` [Example 167, 4-(dimethylamino)-1-(4-(3-((4-(trifluoromethyl)phenyl)amino)pyrazin-2-yl)piperazin-1-yl)but-2-en-1-one], for which the figures for the IC50 (with NCI-H226 cells; in experiment [1]; with IMR32 cells) were 0.108 µM, 1000 nM and 10 µM, respectively.
Taken in the same sequence, the figures for `CC(=O)N1CCN(c2nccnc2Nc2ccc(C(F)(F)F)cc2)CC1` [Example 168, 1-(4-(3-((4-(trifluoromethyl)phenyl)amino)pyrazin-2-yl)piperazin-1-yl)ethan-1-one] were > 10 µM, 487 nM and > 20 µM.
Taken in the same sequence, the figures for `O=C(C(F)Cl)N1CCN(c2nccnc2Nc2ccc(C(F)(F)F)cc2)CC1` (stereo not drawn) [Example 169, 2-chloro-2-fluoro-1-(4-(3-((4-(trifluoromethyl)phenyl)amino)pyrazin-2-yl)piperazin-1-yl)ethan-1-one] were 0.037 µM, 13.1 nM and > 10 µM.
